Source: PubChem BioAssay AID328 (DTP/NCI, 2004)
“And” between values parts separate entries of the source, which are not always exact repeats. Equal values may be shown once. Inconclusive results and toxic doses are left out. The calls were made as follows: active = survival T/C of 150% or more; inactive = T/C below 125% in these data.

Test system: BDF1 mice, P388 leukemia ip, median survival T/C
Assay: NCI In Vivo Anticancer Drug Screen. Data for tumor model P388 Leukemia (intraperitoneal) in B6D2F1 (BDF1) mice
Settings: endpoint: median survival time, higher = longer survival
Method in brief: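 In tumour-bearing mice, survival after compound treatment is set against the vehicle group and given as a quotient.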

[1] = dose: 25.0 mg/kg/injection, schedule: Q01DX009 (ip), vehicle: saline
[2] = dose: 50.0 mg/kg/injection, schedule: Q01DX009 (ip), vehicle: saline
[3] = dose: 50.0 mg/kg/injection, schedule: Q04DX003 (ip), vehicle: saline
[4] = dose: 100.0 mg/kg/injection, schedule: Q01DX009 (ip), vehicle: saline
[5] = dose: 100.0 mg/kg/injection, schedule: Q04DX003 (ip), vehicle: saline
[6] = dose: 100.0 mg/kg/injection, schedule: Q04DX003 (ip), vehicle: saline with Tween-80
[7] = dose: 400.0 mg/kg/injection, schedule: Q04DX003 (ip), vehicle: saline with Tween-80
[8] = dose: 25.0 mg/kg/injection, schedule: Q04DX003 (ip), vehicle: saline
[9] = dose: 6.25 mg/kg/injection, schedule: Q01DX009 (ip), vehicle: Klucel (hydroxypropylcellulose) (HPC)
[10] = dose: 12.5 mg/kg/injection, schedule: Q01DX009 (ip), vehicle: Klucel (hydroxypropylcellulose) (HPC)
[11] = dose: 25.0 mg/kg/injection, schedule: Q01DX009 (ip), vehicle: Klucel (hydroxypropylcellulose) (HPC)
[12] = dose: 6.25 mg/kg/injection, schedule: Q01DX009 (ip), vehicle: saline
[13] = dose: 12.5 mg/kg/injection, schedule: Q01DX009 (ip), vehicle: saline

Measured: T/C

Cc1cc([N+](=O)[O-])cc([N+](=O)[O-])c1OC(=O)c1ccc(N=C(N)N)cc1
inactive: [1] 110 % of control | [2] 110 % of control | [3] 109 % of control | [4] 110 % of control | [5] 100 % of control | dose: 150.0 mg/kg/injection, schedule: Q01DX009 (ip), vehicle: saline 110 % of control | dose: 200.0 mg/kg/injection, schedule: Q04DX003 (ip), vehicle: saline 90 % of control

NC(=S)N1N=C(c2cccc([N+](=O)[O-])c2)CCC1=O
inactive: [6] 100 % of control | [7] 100 % of control

CC1CCC2C(C1)N(C(C)C)OC2(C)C (stereo not given)
inactive: [6] 109 % of control | dose: 200.0 mg/kg/injection, schedule: Q04DX003 (ip), vehicle: saline with Tween-80 100 % of control | [7] 90 % of control

CC1=CCS(=O)(=O)C1
inactive: dose: 25.0 mg/kg/injection, schedule: Q01DX001 (ip), vehicle: other 95 % of control | [1] 113 % of control | [8] 91 % of control | dose: 50.0 mg/kg/injection, schedule: Q01DX001 (ip), vehicle: other 86 % of control | [2] 100 % of control | [3] 87 % of control | dose: 100.0 mg/kg/injection, schedule: Q01DX001 (ip), vehicle: other 95 % of control | [4] 109 % of control | [5] 91 % of control

O=C(NN(Cn1c(=S)sc2ccccc21)Cn1c(=S)sc2ccccc21)c1ccncc1
inactive: [9] 102 % of control | [10] 120 % of control | [11] 118 % of control

COc1cccc(CC2=NCCc3cc(OC)c(OC)cc32)c1
inactive: [12] 108 % of control | [13] 94 % of control | [1] 94 % of control | [8] 87 % of control | [2] 95 % of control and 98 % of control | [3] 91 % of control

CN(Cc1ccco1)NC(=O)C(=O)NCc1ccco1
inactive: dose: 12.5 mg/kg/injection, schedule: Q01DX005 (ip), vehicle: saline with Tween-80 95 % of control | dose: 25.0 mg/kg/injection, schedule: Q01DX005 (ip), vehicle: saline with Tween-80 95 % of control | dose: 50.0 mg/kg/injection, schedule: Q01DX005 (ip), vehicle: saline with Tween-80 88 % of control

CC(C)(C)NCc1cc(C(C)(C)C)cc(-c2ccc(Cl)cc2)c1O
inactive: dose: 50.0 mg/kg/injection, schedule: Q01DX009 (ip), vehicle: saline with Tween-80 99 % of control | dose: 100.0 mg/kg/injection, schedule: Q01DX009 (ip), vehicle: saline with Tween-80 102 % of control

CC([NH-])C(=O)O.CC([NH-])C(=O)O.[Ni+2] (stereo not given)
inactive: dose: 4.0 mg/kg/injection, schedule: Q01DX009 (ip), vehicle: saline 109 % of control | [12] 103 % of control | dose: 8.0 mg/kg/injection, schedule: Q01DX009 (ip), vehicle: saline 113 % of control | [13] 107 % of control | dose: 15.0 mg/kg/injection, schedule: Q04DX003 (ip), vehicle: saline 113 % of control | dose: 16.0 mg/kg/injection, schedule: Q01DX009 (ip), vehicle: saline 113 % of control | [8] 118 % of control

O=c1[nH]c(=O)c(C2OC(CO)C(O)C2O)co1 (stereo not given)
inactive: dose: 20.0 mg/kg/injection, schedule: Q04DX003 (ip), vehicle: saline with Tween-80 100 % of control

c1ccc(OCc2ccc(COc3ccccc3)cc2)cc1
inactive: [9] 96 % of control | [10] 96 % of control | [11] 92 % of control and 96 % of control | dose: 25.0 mg/kg/injection, schedule: Q04DX003 (ip), vehicle: Klucel (hydroxypropylcellulose) (HPC) 100 % of control | dose: 50.0 mg/kg/injection, schedule: Q04DX003 (ip), vehicle: Klucel (hydroxypropylcellulose) (HPC) 104 % of control | dose: 100.0 mg/kg/injection, schedule: Q01DX009 (ip), vehicle: Klucel (hydroxypropylcellulose) (HPC) 92 % of control | dose: 100.0 mg/kg/injection, schedule: Q04DX003 (ip), vehicle: Klucel (hydroxypropylcellulose) (HPC) 100 % of control
